Results as given in paper PMC6943423, “Structure-Activity Study of an All-D Antimicrobial Octapeptide D2D” (Molecules, 2019).
Square brackets hold non-standard residues; d marks the D form. Peptide text beside a SMILES is read from it. d1Nal = N[C@H](Cc1cccc2ccccc12)C(=O)O; dNle = CCCC[C@@H](N)C(=O)O

System: human red blood cells
Assay: Hemolytic activity
Format: cell-based
Settings: red cells of human, 1 h, 150
Protocol: The percentage of hemolysis at 150 μM was determined for all compounds as previously described. Briefly, two-fold serial dilutions (2.35 to 150 μM) of compounds in PBS were mixed with a 0.5% v/v suspension of fresh human red blood cells (RBC) in the same buffer. After 1 h incubation at 37 °C, plates were centrifuged and aliquots of the supernatants were transferred to clear ELISA plates. Absorbance at 414 nm was determined and normalised with respect to a negative (PBS, 0%) and positive (melittin, 100%) control.

| SMILES | %H (% Hemolysis at 150 µM) [%] |
| --- | --- |
| CCCC[C@@H](NC(=O)[C@@H](CO)NC(=O)[C@@H](Cc1cccc2ccccc12)NC(=O)[C@@H](CCCCN)NC(=O)[C@@H](Cc1ccccc1)NC(=O)[C@@H](Cc1cccc2ccccc12)NC(=O)[C@@H](CCCCN)NC(=O)[C@H](N)CCCCN)C(N)=O [Compound 21, kk(1-nal)fk(1-nal)s(nle)-NH2] (H-[dK][dK][d1Nal][dF][dK][d1Nal][dS][dNle]-NH2; N-terminus assumed) | 85 |
| CCCC[C@@H](NC(=O)[C@@H](CCCCN)NC(=O)[C@@H](Cc1cccc2ccccc12)NC(=O)[C@@H](CCCCN)NC(=O)[C@@H](Cc1ccccc1)NC(=O)[C@@H](Cc1cccc2ccccc12)NC(=O)[C@H](N)CCCCN)C(N)=O [Compound 27, k(1-nal)fk(1-nal)k(nle)-NH2] (H-[dK][d1Nal][dF][dK][d1Nal][dK][dNle]-NH2; N-terminus assumed) | 49 |
| CCCC[C@@H](NC(=O)[C@@H](CCCCN)NC(=O)[C@@H](Cc1cccc2ccccc12)NC(=O)[C@@H](CCCCN)NC(=O)[C@@H](Cc1ccccc1)NC(=O)[C@@H](Cc1cccc2ccccc12)NC(=O)[C@@H](CCCCN)NC(=O)[C@H](N)CCCNC(=N)N)C(N)=O [Compound 33, rk(1-nal)fk(1-nal)k(nle)-NH2] (H-[dR][dK][d1Nal][dF][dK][d1Nal][dK][dNle]-NH2) | 60 |
| CCCC[C@@H](NC(=O)[C@@H](CCCCN)NC(=O)[C@@H](Cc1cccc2ccccc12)NC(=O)[C@@H](CCCC)NC(=O)[C@@H](Cc1ccccc1)NC(=O)[C@@H](Cc1cccc2ccccc12)NC(=O)[C@@H](CCCCN)NC(=O)[C@H](N)CCCCN)C(N)=O [Compound 11, kk(1-nal)f(nle)(1-nal)k(nle)-NH2] (H-[dK][dK][d1Nal][dF][dNle][d1Nal][dK][dNle]-NH2; N-terminus assumed) | 33 |
| CCCC[C@@H](NC(=O)[C@@H](CCCCN)NC(=O)[C@@H](Cc1cccc2ccccc12)NC(=O)[C@@H](Cc1ccccc1)NC(=O)[C@@H](Cc1ccccc1)NC(=O)[C@@H](Cc1cccc2ccccc12)NC(=O)[C@@H](CCCCN)NC(=O)[C@H](N)CCCCN)C(N)=O [Compound 12, kk(1-nal)ff(1-nal)k(nle)-NH2] (H-[dK][dK][d1Nal][dF][dF][d1Nal][dK][dNle]-NH2; N-terminus assumed) | 74 |
| CCCC[C@@H](NC(=O)[C@@H](CCCCN)NC(=O)[C@@H](Cc1cccc2ccccc12)NC(=O)[C@H](NC(=O)[C@@H](Cc1ccccc1)NC(=O)[C@@H](Cc1cccc2ccccc12)NC(=O)[C@@H](CCCCN)NC(=O)[C@H](N)CCCCN)C(C)C)C(N)=O [Compound 16, kk(1-nal)fv(1-nal)k(nle)-NH2] (H-[dK][dK][d1Nal][dF][dV][d1Nal][dK][dNle]-NH2; N-terminus assumed) | 54 |
| CCCC[C@@H](NC(=O)[C@@H](Cc1cccc2ccccc12)NC(=O)[C@@H](CCCCN)NC(=O)[C@@H](Cc1ccccc1)NC(=O)[C@@H](Cc1cccc2ccccc12)NC(=O)[C@@H](CCCCN)NC(=O)[C@H](N)CCCCN)C(=O)N[C@H](CCCCN)C(N)=O [Compound 26, kk(1-nal)fk(1-nal)(nle)k-NH2] (H-[dK][dK][d1Nal][dF][dK][d1Nal][dNle][dK]-NH2; N-terminus assumed) | 18 |
| CCCC[C@@H](NC(=O)[C@H](NC(=O)[C@@H](Cc1cccc2ccccc12)NC(=O)[C@@H](CCCCN)NC(=O)[C@@H](Cc1ccccc1)NC(=O)[C@@H](Cc1cccc2ccccc12)NC(=O)[C@@H](CCCCN)NC(=O)[C@H](N)CCCCN)C(C)C)C(N)=O [Compound 24, kk(1-nal)fk(1-nal)v(nle)-NH2] (H-[dK][dK][d1Nal][dF][dK][d1Nal][dV][dNle]-NH2; N-terminus assumed) | 50 |
| CCCC[C@@H](NC(=O)[C@@H](CCCCN)NC(=O)[C@@H](Cc1cccc2ccccc12)NC(=O)[C@@H](CCCCN)NC(=O)[C@@H](Cc1ccccc1)NC(=O)[C@@H](Cc1cccc2ccccc12)NC(=O)[C@@H](CCCNC(=N)N)NC(=O)[C@H](N)CCCCN)C(N)=O [Compound 34, kr(1-nal)fk(1-nal)k(nle)-NH2] (H-[dK][dR][d1Nal][dF][dK][d1Nal][dK][dNle]-NH2; N-terminus assumed) | 35 |
| CCCC[C@@H](NC(=O)[C@@H](CCCC)NC(=O)[C@@H](Cc1cccc2ccccc12)NC(=O)[C@@H](CCCCN)NC(=O)[C@@H](Cc1ccccc1)NC(=O)[C@@H](Cc1cccc2ccccc12)NC(=O)[C@@H](CCCCN)NC(=O)[C@H](N)CCCCN)C(N)=O [Compound 19, kk(1-nal)fk(1-nal)(nle)(nle)-NH2] (H-[dK][dK][d1Nal][dF][dK][d1Nal][dNle][dNle]-NH2; N-terminus assumed) | 56 |
| CCCC[C@@H](NC(=O)[C@@H](CCCCN)NC(=O)[C@@H](Cc1cccc2ccccc12)NC(=O)[C@H](NC(=O)[C@@H](Cc1ccccc1)NC(=O)[C@@H](Cc1cccc2ccccc12)NC(=O)[C@@H](CCCCN)NC(=O)[C@H](N)CCCCN)[C@H](C)O)C(N)=O [Compound 14, kk(1-nal)ft(1-nal)k(nle)-NH2] (H-[dK][dK][d1Nal][dF][dT][d1Nal][dK][dNle]-NH2; N-terminus assumed) | 28 |
| CCCC[C@@H](NC(=O)[C@@H](CCCCN)NC(=O)[C@@H](Cc1cccc2ccccc12)NC(=O)[C@@H](Cc1ccc(O)cc1)NC(=O)[C@@H](Cc1ccccc1)NC(=O)[C@@H](Cc1cccc2ccccc12)NC(=O)[C@@H](CCCCN)NC(=O)[C@H](N)CCCCN)C(N)=O [Compound 15, kk(1-nal)fy(1-nal)k(nle)-NH2] (H-[dK][dK][d1Nal][dF][dY][d1Nal][dK][dNle]-NH2; N-terminus assumed) | 40 |
| CCCC[C@@H](NC(=O)[C@@H](CCCCN)NC(=O)[C@@H](Cc1cccc2ccccc12)NC(=O)[C@@H](Cc1cccc2ccccc12)NC(=O)[C@@H](Cc1ccccc1)NC(=O)[C@@H](Cc1cccc2ccccc12)NC(=O)[C@@H](CCCCN)NC(=O)[C@H](N)CCCCN)C(N)=O [Compound 9, kk(1-nal)f(1-nal)(1-nal)k(nle)-NH2] (H-[dK][dK][d1Nal][dF][d1Nal][d1Nal][dK][dNle]-NH2; N-terminus assumed) | 20 |
| CCCC[C@@H](NC(=O)[C@@H](CCCCN)NC(=O)[C@@H](Cc1cccc2ccccc12)NC(=O)[C@@H](CO)NC(=O)[C@@H](Cc1ccccc1)NC(=O)[C@@H](Cc1cccc2ccccc12)NC(=O)[C@@H](CCCCN)NC(=O)[C@H](N)CCCCN)C(N)=O [Compound 13, kk(1-nal)fs(1-nal)k(nle)-NH2] (H-[dK][dK][d1Nal][dF][dS][d1Nal][dK][dNle]-NH2; N-terminus assumed) | 29 |
| CCCC[C@@H](NC(=O)[C@@H](Cc1ccccc1)NC(=O)[C@@H](Cc1cccc2ccccc12)NC(=O)[C@@H](CCCCN)NC(=O)[C@@H](Cc1ccccc1)NC(=O)[C@@H](Cc1cccc2ccccc12)NC(=O)[C@@H](CCCCN)NC(=O)[C@H](N)CCCCN)C(N)=O [Compound 20, kk(1-nal)fk(1-nal)f(nle)-NH2] (H-[dK][dK][d1Nal][dF][dK][d1Nal][dF][dNle]-NH2; N-terminus assumed) | 91 |
| NCCCC[C@@H](N)C(=O)N[C@H](CCCCN)C(=O)N[C@H](Cc1cccc2ccccc12)C(=O)N[C@H](Cc1ccccc1)C(=O)N[C@H](CCCCN)C(=O)N[C@H](Cc1cccc2ccccc12)C(=O)N[C@H](CCCCN)C(N)=O [Compound 30, kk(1-nal)fk(1-nal)k-NH2] (HELM PEPTIDE1{[dK].[dK].[O=C([C@@H](Cc1cccc2ccccc12)N[*:1])[*:2]].[dF].[dK].[O=C([C@@H](Cc1cccc2ccccc12)N[*:1])[*:2]].[dK].[am]}$$$$V2.0; N-terminus assumed) | 11 |
| NCCCC[C@@H](N)C(=O)N[C@H](CCCCN)C(=O)N[C@H](Cc1cccc2ccccc12)C(=O)N[C@H](Cc1ccccc1)C(=O)N[C@H](CCCCN)C(N)=O [Compound 32, kk(1-nal)fk-NH2] (HELM PEPTIDE1{[dK].[dK].[O=C([C@@H](Cc1cccc2ccccc12)N[*:1])[*:2]].[dF].[dK].[am]}$$$$V2.0; N-terminus assumed) | 5 |
| CCCC[C@@H](NC(=O)[C@@H](CCCNC(=N)N)NC(=O)[C@@H](Cc1cccc2ccccc12)NC(=O)[C@@H](CCCCN)NC(=O)[C@@H](Cc1ccccc1)NC(=O)[C@@H](Cc1cccc2ccccc12)NC(=O)[C@@H](CCCCN)NC(=O)[C@H](N)CCCCN)C(N)=O [Compound 36, kk(1-nal)fk(1-nal)r(nle)-NH2] (H-[dK][dK][d1Nal][dF][dK][d1Nal][dR][dNle]-NH2; N-terminus assumed) | 51 |
| CCCC[C@@H](NC(=O)[C@@H](Cc1cccc2ccccc12)NC(=O)[C@@H](Cc1cccc2ccccc12)NC(=O)[C@@H](CCCCN)NC(=O)[C@@H](Cc1ccccc1)NC(=O)[C@@H](Cc1cccc2ccccc12)NC(=O)[C@@H](CCCCN)NC(=O)[C@H](N)CCCCN)C(N)=O [Compound 17, kk(1-nal)fk(1-nal)(1-nal)(nle)-NH2] (H-[dK][dK][d1Nal][dF][dK][d1Nal][d1Nal][dNle]-NH2; N-terminus assumed) | 89 |
| CCCC[C@@H](NC(=O)[C@H](NC(=O)[C@@H](Cc1cccc2ccccc12)NC(=O)[C@@H](CCCCN)NC(=O)[C@@H](Cc1ccccc1)NC(=O)[C@@H](Cc1cccc2ccccc12)NC(=O)[C@@H](CCCCN)NC(=O)[C@H](N)CCCCN)[C@H](C)O)C(N)=O [Compound 22, kk(1-nal)fk(1-nal)t(nle)-NH2] (H-[dK][dK][d1Nal][dF][dK][d1Nal][dT][dNle]-NH2; N-terminus assumed) | 66 |
| CCCC[C@@H](NC(=O)[C@@H](CCCCN)NC(=O)[C@@H](Cc1cccc2ccccc12)NC(=O)[C@@H](CCCCN)NC(=O)[C@@H](Cc1ccccc1)NC(=O)[C@H](N)Cc1cccc2ccccc12)C(N)=O [Compound 28, (1-nal)fk(1-nal)k(nle)-NH2] (H-[d1Nal][dF][dK][d1Nal][dK][dNle]-NH2; N-terminus assumed) | 62 |
